Legend:
B. cereus = assay: Inhibition of endospore germination (outgrowth), plating on nutrient agar; assay type: cell-based, Bacillus cereus; conditions: for Average Inhibition of Spore Germination: Table 2, B. cereus, 2 hours treatment; for Average Percent Inhibition of B. cereus: Table 3 (FIG. 2)
Procedure: (§1) Heated samples were treated with 1, 5, 10% of GTP (mixed green tea polyphenols), LTP (lipophilic green tea polyphenols), EGCg (epigallocatechingallate), or EGCg-Stearate for 2 hours, diluted and plated onto nutrient agar plates, and incubated at 37° C. for 24 hours. Non-starved cells and starved cells without treatment were used as controls.
(§2) Germination, specifically outgrowth, of purified endospores in Bacillus cereus, B. megaterium, and B. subtilis was studied by treating the bacteria with four different green tea polyphenols: GTP (mixed green tea polyphenols), LTP (lipophilic green tea polyphenols), EGCg (epigallocatechingallate), and EGCg-Stearate.

[1] = test system: Bacillus megaterium spores; assay: Viability of heat-treated spores after treatment, colony count on nutrient agar; assay type: cell-based; conditions: 10%
Procedure: Bacillus megaterium spores were induced through process of starvation for 2 hours in sterile deionized water and then heated at 90° C. for 20 minutes. The heated samples were treated with 10% of EGCG or EGCG-ester for 1 hour or 24 hours respectively and then plated onto nutrient agar plates with a countable range of 150 to 300 CPU (colony counting unit). The non-starved cells and starved cells without treatment were used as controls.

B. subtilis = assay: Inhibition of endospore germination (outgrowth), plating on nutrient agar; assay type: cell-based, Bacillus subtilis; conditions: for Average Inhibition of Spore Germination: Table 2, B. subtilis, 2 hours treatment; for Average Percent Inhibition of B. subtilis: Table 5 (FIG. 4)
Procedure: as §1, §2

B. megaterium = assay: as above; assay type: cell-based, Bacillus megaterium; conditions: for Average Inhibition of Spore Germination: Table 2, B. megaterium, 2 hours treatment; for Average Percent Inhibition of B. megaterium: Table 4 (FIG. 3)
Procedure: as §1, §2

Row | Compound | Average Inhibition of Spore Germination (B. cereus; 1%) | Average Inhibition of Spore Germination (B. cereus; 5%) | Average Inhibition of Spore Germination (B. cereus; 10%) | Average Percent Inhibition of B. cereus (B. cereus; concentration 1%) | Average Percent Inhibition of B. cereus (B. cereus; concentration 5%) | Average Percent Inhibition of B. cereus (B. cereus; concentration 10%) | Inhibition of viability of Bacillus megaterium spores compared to the control ([1]; after 24 hours-incubation at 37° C.) | Viable cells or colonies of Bacillus megaterium detected ([1]; both 1 hour and 24 hours treated samples) | Average Inhibition of Spore Germination (B. subtilis; 1%) | Average Inhibition of Spore Germination (B. subtilis; 5%) | Average Inhibition of Spore Germination (B. subtilis; 10%) | Average Percent Inhibition of B. subtilis (B. subtilis; concentration 1%) | Average Percent Inhibition of B. subtilis (B. subtilis; concentration 5%) | Average Inhibition of Spore Germination (B. megaterium; 10%) | Average Percent Inhibition of B. megaterium (B. megaterium; concentration 1%) | Average Percent Inhibition of B. megaterium (B. megaterium; concentration 5%) | Average Percent Inhibition of B. megaterium (B. megaterium; concentration 10%) | Average Inhibition of Spore Germination (B. megaterium; 1%) | Average Inhibition of Spore Germination (B. megaterium; 5%)
1 | O=C(O[C@@H]1Cc2c(O)cc(O)cc2O[C@@H]1c1cc(O)c(O)c(O)c1)c1cc(O)c(O)c(O)c1 [EGCg, (−)-epigallocatechin-3-gallate] | 16.9% | 25.7% | 33.0% | 94.18% | 91.68% | 99% | 90% | no viable cells or colonies | 52.9% | 45.1% | 66.1% | 99.95% | 100% | 100.0% | 96.39% | 99.48% | 99.85% |  | 
2 | CCCCCCCCCCCCCCCCCC(=O)Oc1c(O)cc([C@H]2Oc3cc(O)cc(O)c3C[C@H]2OC(=O)c2cc(O)c(O)c(O)c2)cc1O [EGCg-Stearate, (−)-epigallocatechin-3-gallate (EGCG) esterified at the 4′ position with stearic acid] | 72.6% | 56.6% | 90.5% | 88.81% | 98.49% | 98% |  |  | 55.0% | 58.1% | 69.2% | 99.93% | 98.77% | 79.0% | 99.84% | 91.91% | 97.14% | 70.5% | 75.0%
